Experimental data: US20180256592A1, “ANTIBACTERIAL COMPOSITIONS” (priority 2015, published 2018)

Legend:
Format in all cases: cell-based
[1] = system: Klebsiella H 515 (KPC, class A); assay: MIC by agar dilution (MHA, CLSI)
Procedure: (§1) The antibacterial activity of combinations according to the invention was investigated against various bacterial strains. In a typical study, minimum inhibitory concentrations (MICs) were determined using Muller Hinton Agar (MHA) (BD, USA) according to Clinical and Laboratory Standards Institute (CLSI) recommendations, (Clinical and Laboratory Standards Institute (CLSI), Performance Standards for Antimicrobial Susceptibility Testing, 20th Informational Supplement, M 100-S20, Volume 30, No. 1, 2010). In short, the inocula were adjusted to deliver about […] colony forming units (CFU) per spot with a multipoint inoculator (Applied Quality Services, UK). The plates were pored with doubling concentration range of the test combinations according to invention containing MHA. The plates were inoculated and were incubated at 35° C. for 18 hours.

[2] = system: KP S 691 (OXA 181, SHV, TEM, CTX-M 1); assay: MIC by agar dilution (MHA, CLSI)
Procedure: as §1

[3] = system: Klebsiella H 520 (KPC, class A); assay: MIC by agar dilution (MHA, CLSI)
Procedure: as §1

[4] = system: KP S 440 (OXA 181, SHV, TEM, CTX-M 1); assay: MIC by agar dilution (MHA, CLSI)
Procedure: as §1

[5] = system: Klebsiella J 117 (SHV, OMP); assay: MIC by agar dilution (MHA, CLSI)
Procedure: as §1

[6] = system: Klebsiella H 523 (KPC, class A); assay: MIC by agar dilution (MHA, CLSI)
Procedure: as §1

[7] = system: Klebsiella H 521 (KPC, class A); assay: MIC by agar dilution (MHA, CLSI)
Procedure: as §1

[8] = system: Klebsiella J 130 (SHV, OMP); assay: MIC by agar dilution (MHA, CLSI)
Procedure: as §1

NCTC KP 13442 (OXA-48) = assay: MIC by agar dilution (MHA, CLSI)
Procedure: as §1

[9] = system: Klebsiella J 102 (TEM, SHV, OMP); assay: MIC by agar dilution (MHA, CLSI)
Procedure: as §1

[10] = system: Klebsiella J 101 (TEM, SHV, OMP); assay: MIC by agar dilution (MHA, CLSI)
Procedure: as §1

[11] = system: highly resistant gram negative bacterial strains; assay: MIC by agar dilution (MHA, CLSI), whole strain panel of Table 1; conditions: for MIC: read-out: MICs when used alone
Procedure: as §1

[12] = KP S 691 (OXA 181, SHV, TEM, CTX-M 1), + clavulanic acid 4 μg/ml

COCC1=C(C(=O)O)N2C(=O)[C@@H](NC(=O)/C(=N\OC)c3csc(N)n3)[C@H]2SC1 [Cefpodoxime, cefpodoxime]
4 μ/ml: MIC of Cefpodoxime in presence of Clavulanic acid (4 μg/ml) ([5]; + clavulanic acid 4 μg/ml) | MIC of Cefpodoxime, Control (Cefpodoxime alone) (NCTC KP 13442 (OXA-48); drug alone)
1 μ/ml: MIC of Cefpodoxime in presence of Clavulanic acid (4 μg/ml) (NCTC KP 13442 (OXA-48); + clavulanic acid 4 μg/ml)
32 μ/ml: MIC of Cefpodoxime in presence of Clavulanic acid (4 μg/ml) ([8]; + clavulanic acid 4 μg/ml)
>32 μ/ml: MIC of Cefpodoxime in presence of Clavulanic acid (4 μg/ml) ([1]; + clavulanic acid 4 μg/ml) | MIC of Cefpodoxime, Control (Cefpodoxime alone) ([1]; drug alone) | MIC of Cefpodoxime in presence of Clavulanic acid (4 μg/ml) [2, 12] | MIC of Cefpodoxime, Control (Cefpodoxime alone) ([2]; KP S 691 (OXA 181, SHV, TEM, CTX-M 1), drug alone) | MIC of Cefpodoxime in presence of Clavulanic acid (4 μg/ml) ([3]; + clavulanic acid 4 μg/ml) | MIC of Cefpodoxime, Control (Cefpodoxime alone) ([3]; drug alone) | MIC of Cefpodoxime in presence of Clavulanic acid (4 μg/ml) ([4]; + clavulanic acid 4 μg/ml) | MIC of Cefpodoxime, Control (Cefpodoxime alone) ([4]; drug alone) | MIC of Cefpodoxime, Control (Cefpodoxime alone) ([5]; drug alone) | MIC of Cefpodoxime in presence of Clavulanic acid (4 μg/ml) ([6]; + clavulanic acid 4 μg/ml) | MIC of Cefpodoxime, Control (Cefpodoxime alone) ([6]; drug alone) | MIC of Cefpodoxime in presence of Clavulanic acid (4 μg/ml) ([7]; + clavulanic acid 4 μg/ml) | MIC of Cefpodoxime, Control (Cefpodoxime alone) ([7]; drug alone) | MIC of Cefpodoxime, Control (Cefpodoxime alone) ([8]; drug alone) | MIC of Cefpodoxime in presence of Clavulanic acid (4 μg/ml) ([9]; + clavulanic acid 4 μg/ml) | MIC of Cefpodoxime, Control (Cefpodoxime alone) ([9]; drug alone) | MIC of Cefpodoxime in presence of Clavulanic acid (4 μg/ml) ([10]; + clavulanic acid 4 μg/ml) | MIC of Cefpodoxime, Control (Cefpodoxime alone) ([10]; drug alone)

C[C@]1(Cn2ccnn2)[C@H](C(=O)O)N2C(=O)C[C@H]2S1(=O)=O [Tazobactam, tazobactam]
> 32 µg/mL: MIC [11]

Nc1nc(/C(=C/CC(=O)O)C(=O)N[C@@H]2C(=O)N3C(C(=O)O)=CCS[C@H]23)cs1 [Ceftibuten, ceftibuten]
significantly reduced: change of MIC values of ceftibuten in the presence of clavulanic acid ([11]; strains of Table 1, clavulanic acid 4 μg/ml)
0.12 µg/mL: MIC in presence of Clavulanic acid (4 μg/ml) ([5]; + clavulanic acid 4 μg/ml) | MIC in presence of Clavulanic acid (4 μg/ml) (NCTC KP 13442 (OXA-48); + clavulanic acid 4 μg/ml)
8 µg/mL: MIC in presence of Sulbactam (4 μg/ml) ([1]; + sulbactam 4 μg/ml) | MIC in presence of Tazobactam (4 μg/ml) ([1]; + tazobactam 4 μg/ml) | MIC [2] | MIC in presence of Sulbactam (4 μg/ml) ([3]; + sulbactam 4 μg/ml) | MIC in presence of Tazobactam (4 μg/ml) ([6]; + tazobactam 4 μg/ml) | MIC in presence of Clavulanic acid (4 μg/ml) ([9]; + clavulanic acid 4 μg/ml) | MIC in presence of Clavulanic acid (4 μg/ml) ([10]; + clavulanic acid 4 μg/ml)
1 µg/mL: MIC in presence of Clavulanic acid (4 μg/ml) [2, 12]
> 32 µg/mL: MIC ([8]; drug alone) | MIC ([10]; drug alone)
2 µg/mL: MIC in presence of Sulbactam (4 μg/ml) ([2]; KP S 691 (OXA 181, SHV, TEM, CTX-M 1), + sulbactam 4 μg/ml) | MIC in presence of Tazobactam (4 μg/ml) ([2]; KP S 691 (OXA 181, SHV, TEM, CTX-M 1), + tazobactam 4 μg/ml) | MIC in presence of Clavulanic acid (4 μg/ml) ([4]; + clavulanic acid 4 μg/ml)
16 µg/mL: MIC ([1]; drug alone) | MIC in presence of Tazobactam (4 μg/ml) ([3]; + tazobactam 4 μg/ml) | MIC ([4]; drug alone) | MIC ([6]; drug alone) | MIC in presence of Sulbactam (4 μg/ml) ([7]; + sulbactam 4 μg/ml) | MIC in presence of Tazobactam (4 μg/ml) ([7]; + tazobactam 4 μg/ml)
32 µg/mL: MIC ([3]; drug alone) | MIC in presence of Sulbactam (4 μg/ml) ([5]; + sulbactam 4 μg/ml) | MIC in presence of Tazobactam (4 μg/ml) ([5]; + tazobactam 4 μg/ml) | MIC ([5]; drug alone) | MIC ([7]; drug alone) | MIC in presence of Sulbactam (4 μg/ml) ([9]; + sulbactam 4 μg/ml) | MIC in presence of Tazobactam (4 μg/ml) ([9]; + tazobactam 4 μg/ml) | MIC ([9]; drug alone) | MIC in presence of Sulbactam (4 μg/ml) ([10]; + sulbactam 4 μg/ml) | MIC in presence of Tazobactam (4 μg/ml) ([10]; + tazobactam 4 μg/ml)
0.25 µg/mL: MIC in presence of Sulbactam (4 μg/ml) (NCTC KP 13442 (OXA-48); + sulbactam 4 μg/ml) | MIC in presence of Tazobactam (4 μg/ml) (NCTC KP 13442 (OXA-48); + tazobactam 4 μg/ml) | MIC (NCTC KP 13442 (OXA-48); drug alone)
>32 µg/mL: MIC in presence of Sulbactam (4 μg/ml) ([8]; + sulbactam 4 μg/ml) | MIC in presence of Tazobactam (4 μg/ml) ([8]; + tazobactam 4 μg/ml)
4 µg/mL: MIC in presence of Clavulanic acid (4 μg/ml) ([1]; + clavulanic acid 4 μg/ml) | MIC in presence of Clavulanic acid (4 μg/ml) ([3]; + clavulanic acid 4 μg/ml) | MIC in presence of Sulbactam (4 μg/ml) ([4]; + sulbactam 4 μg/ml) | MIC in presence of Tazobactam (4 μg/ml) ([4]; + tazobactam 4 μg/ml) | MIC in presence of Clavulanic acid (4 μg/ml) ([6]; + clavulanic acid 4 μg/ml) | MIC in presence of Sulbactam (4 μg/ml) ([6]; + sulbactam 4 μg/ml) | MIC in presence of Clavulanic acid (4 μg/ml) ([7]; + clavulanic acid 4 μg/ml) | MIC in presence of Clavulanic acid (4 μg/ml) ([8]; + clavulanic acid 4 μg/ml)

C[C@@H](O)[C@H]1C(=O)N2C(C(=O)O)=C(SCCN=CN)C[C@H]12 [Imipenem]
> 32 µg/mL: MIC ([3]; drug alone) | MIC ([6]; drug alone) | MIC ([7]; drug alone)
4 µg/mL: MIC ([8]; drug alone) | MIC ([10]; drug alone)
2 µg/mL: MIC ([4]; drug alone) | MIC ([5]; drug alone) | MIC (NCTC KP 13442 (OXA-48); drug alone)
8 µg/mL: MIC ([9]; drug alone)
16 µg/mL: MIC ([1]; drug alone)

O=C(O)[C@H]1/C(=C/CO)O[C@@H]2CC(=O)N21 [Clavulanic acid, clavulanic acid]
> 32 µg/mL: MIC [11]

C=CC1=C(C(=O)O)N2C(=O)[C@@H](NC(=O)/C(=N\OCC(=O)O)c3csc(N)n3)[C@H]2SC1 [Cefixime, cefixime]
16 µg/mL: MIC in presence of Clavulanic acid (4 μg/ml) ([1]; + clavulanic acid 4 μg/ml) | MIC in presence of Clavulanic acid (4 μg/ml) [2, 12] | MIC in presence of Clavulanic acid (4 μg/ml) ([3]; + clavulanic acid 4 μg/ml) | MIC in presence of Clavulanic acid (4 μg/ml) ([4]; + clavulanic acid 4 μg/ml) | MIC in presence of Clavulanic acid (4 μg/ml) ([6]; + clavulanic acid 4 μg/ml) | MIC in presence of Clavulanic acid (4 μg/ml) ([7]; + clavulanic acid 4 μg/ml) | MIC in presence of Clavulanic acid (4 μg/ml) ([8]; + clavulanic acid 4 μg/ml)
>32 µg/mL: MIC in presence of Clavulanic acid (4 μg/ml) ([9]; + clavulanic acid 4 μg/ml) | MIC in presence of Clavulanic acid (4 μg/ml) ([10]; + clavulanic acid 4 μg/ml)
> 32 µg/mL: MIC ([1]; drug alone) | MIC [2] | MIC ([3]; drug alone) | MIC ([4]; drug alone) | MIC ([5]; drug alone) | MIC ([6]; drug alone) | MIC ([7]; drug alone) | MIC ([8]; drug alone) | MIC ([9]; drug alone) | MIC ([10]; drug alone)
0.5 µg/mL: MIC in presence of Clavulanic acid (4 μg/ml) ([5]; + clavulanic acid 4 μg/ml)
0.25 µg/mL: MIC in presence of Clavulanic acid (4 μg/ml) (NCTC KP 13442 (OXA-48); + clavulanic acid 4 μg/ml) | MIC (NCTC KP 13442 (OXA-48); drug alone)

CC1(C)[C@H](C(=O)O)N2C(=O)C[C@H]2S1(=O)=O [Sulbactam, sulbactam]
> 32 µg/mL: MIC [11]

C=CC1=C(C(=O)O)N2C(=O)[C@@H](NC(=O)/C(=N\O)c3csc(N)n3)[C@H]2SC1 [Cefdinir, cefdinir]
32 µg/mL: MIC in presence of Clavulanic acid (4 μg/ml) (NCTC KP 13442 (OXA-48); + clavulanic acid 4 μg/ml) | MIC (NCTC KP 13442 (OXA-48); drug alone)
16 µg/mL: MIC in presence of Clavulanic acid (4 μg/ml) ([8]; + clavulanic acid 4 μg/ml)
0.5 µg/mL: MIC in presence of Clavulanic acid (4 μg/ml) ([5]; + clavulanic acid 4 μg/ml)
>32 µg/mL: MIC in presence of Clavulanic acid (4 μg/ml) ([1]; + clavulanic acid 4 μg/ml) | MIC in presence of Clavulanic acid (4 μg/ml) [2, 12] | MIC in presence of Clavulanic acid (4 μg/ml) ([3]; + clavulanic acid 4 μg/ml) | MIC in presence of Clavulanic acid (4 μg/ml) ([4]; + clavulanic acid 4 μg/ml) | MIC in presence of Clavulanic acid (4 μg/ml) ([6]; + clavulanic acid 4 μg/ml) | MIC in presence of Clavulanic acid (4 μg/ml) ([7]; + clavulanic acid 4 μg/ml) | MIC in presence of Clavulanic acid (4 μg/ml) ([9]; + clavulanic acid 4 μg/ml) | MIC in presence of Clavulanic acid (4 μg/ml) ([10]; + clavulanic acid 4 μg/ml)
> 32 µg/mL: MIC ([1]; drug alone) | MIC [2] | MIC ([3]; drug alone) | MIC ([4]; drug alone) | MIC ([5]; drug alone) | MIC ([6]; drug alone) | MIC ([7]; drug alone) | MIC ([8]; drug alone) | MIC ([9]; drug alone) | MIC ([10]; drug alone)
